Test results from patent publication US20160223554A1, “METHODS FOR DIAGNOSIS, PROGNOSIS AND METHODS OF TREATMENT” (priority 2011, published 2016).
Like-named read-outs stand apart in the source and are kept apart here. Residues, ends and D or L forms follow the SMILES beside them. *: point of attachment. Cbz = O=C(OCc1ccccc1)*; CH2F = FC*

Legend:
AML leukemic cells = assay: Apotosis/Cytostasis Arm with kinase inhibitors (Example 13); format: cell-based, human; conditions: two samples with greatest SCF and G-CSF signaling response; 1 μM; 48-hr incubation
Excerpt: All results were compared with results from bone marrow samples from healthy donors (N=6).

[1] = cited from earlier work
AML blasts = assay: SCNP functional apoptosis and DNA damage response assay in AML PBMC (Examples 2, 6, 8, 10); format: cell-based, human; conditions: with staurosporine or etoposide
Experimental: A viable cell will be Aqua negative and PARP negative and a measure of cell death is PARP and/or Aqua positivity.
“Apoptosis”=% of PARP^−Aqua^−unstim−% of PARP^−Aqua^−Drug.
Functional assays were performed as previously described. See Irish, et al., Cell 2004; 118:217-228.
The median fluorescence intensity (MFI) was computed for each node from the fluorescence intensity levels for the cells in the myeloid population. The MFI values were then used to compute a variety of metrics by comparing them to baseline or background values, including the unmodulated condition, cellular autofluorescence and antibody isotype controls. The following metrics were computed: • 1. Basal MFI (“Basal”)=log2(MFIUnmodulated Stained)−log2(MFIGated Unstained (Autofluoresence)), designed to measure the basal levels of a certain protein under unmodulated conditions. • 2. Fold Change MFI (“Fold”)=log2(MFIModulated Stained)−log2(MFIUnmodulated Stained), a measure of the change in the activation state of a protein under modulated conditions. • 3. Total Phospho MFI (“TotalPhospho”)=log2(MFIModulated Stained)−log2(MFIGated Unstained (Autofluorescence)), a measure of the total levels of a protein under modulated conditions. • 4. Relative Protein Expression (“Rel. Expression”)=log2(MFIstain)−log2(MFIControl), a measure of the levels of surface marker staining relative to control antibody staining • 5. […]

In the case of `C[C@@H]1CCN(C(=O)CC#N)C[C@@H]1N(C)c1ncnc2[nH]ccc12` [CP-690,550], the “sensitivity to kinase inhibitor, cytostasis readouts” value (AML leukemic cells) is reported as “most sensitive”.
For `Nc1ccn([C@@H]2O[C@H](CO)[C@@H](O)[C@@H]2O)c(=O)n1` [Cytarabine, 1β-arabinofuranosylcytosine], the peak plasma concentration ([1]; high dose Cytarabine, 3 g/m2) is given as 2 µM and the peak plasma concentration ([1]; standard dose of Cytarabine, 100 mg/m2) is given as “approximately 40 nM”.
In the case of `COc1cccc2c1C(=O)c1c(O)c3c(c(O)c1C2=O)C[C@@](O)(C(C)=O)C[C@@H]3O[C@H]1C[C@H](N)[C@H](O)[C@H](C)O1` [Daunorubicin], the peak plasma concentration ([1]; Daunorubicin at 25 mg/m2) is listed as 50 ng/mL and the peak plasma concentration ([1]; Daunorubicin at 50 mg/m2) is listed as 200 ng/mL.
With `COC(=O)CC(NC(=O)C(C)NC(=O)C(NC(=O)OCc1ccccc1)C(C)C)C(=O)CF` (stereo not drawn) [Z-VAD, Benzyloxycarbonyl-Val-Ala-Asp (OMe) fluoromethylketone] (Cbz-Val-Ala-Asp(OMe)-CH2F; configuration not given here) the “effect of co-incubation with pan-Caspase inhibitor on Cleaved Caspase-3 and PARP” value (AML blasts; samples 0341, 0521) was “inhibited cleavage of caspase 3 and PARP to near completion” and the “effect of co-incubation with pan-Caspase inhibitor on PARP cleavage” value (AML blasts; samples 8303, 8402) was “only partially inhibited”.
